Among the data in patent publication US20240409557A1, “5,6-FUSED AND 6,6-FUSED BICYCLIC ALCOHOLS AND ETHERS AND COMPOSITIONS FOR USE AS 15-PROSTAGLANDIN DEHYDROGENASE MODULATORS” (AMGEN INC., priority 2023, published 2024) are IC50 values, retold here.

The structures appear in SMILES notation.

The target in the assay is T1, human recombinant 15-PGDH (Homo sapiens, UniProt P15428).
T1 sequence (P15428 1-266): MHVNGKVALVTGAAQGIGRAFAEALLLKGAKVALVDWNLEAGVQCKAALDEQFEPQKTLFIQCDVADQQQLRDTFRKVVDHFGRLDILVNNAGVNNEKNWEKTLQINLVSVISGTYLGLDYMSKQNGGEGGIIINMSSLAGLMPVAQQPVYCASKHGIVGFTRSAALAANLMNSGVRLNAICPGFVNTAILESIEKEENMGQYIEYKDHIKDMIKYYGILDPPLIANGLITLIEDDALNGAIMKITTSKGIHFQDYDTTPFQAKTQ
The assay can be described thus: Recombinant 15-PGDH enzymatic inhibition assay (PGDH-Lumi, NADH signal). It counts as biochemical. The settings on record: recombinant 15-PGDH; 15 min pre-incubation, 60 min reaction with PGE2 and NAD+, NADH signal. As for the experimental part: These assays measured 15-PGDH enzymatic activity by quantifying the amount of NADH produced during a 60-minute reaction initiated by the addition of PGE2 and NAD+. Under the conditions of these experiments, the increase of NADH signal upon oxidation of PGE2 and reduction of NAD+ was linearly proportional to 15-PGDH enzymatic activity. The recombinant human, mouse, rat and dog 15-PGDH enzymatic assays were performed in a 25 μL volume of reaction buffer containing 50 mM Tris, pH 7.5, 0.01% Tween-20 and […] DTT in a 384-well microtiter plate. In concentration-response experiments with tested compounds, 22 concentrations from 2-fold serial dilutions in DMSO were pre-incubated with 15-PGDH for 15 minutes at room temperature. Then, PGE2 and β-NAD+ were added to initiate the 15-PGDH reaction. After 60 minutes at room temperature, the reaction was quenched and NADH signal was measured using a microtiter plate reader.
The following data (Table 27-1) provides the IC50 in μM of each compound for inhibiting enzymatic activity of the recombinant 15-PGDH in the assay described above.

In general, IC50 refers to the midpoint of a concentration-inhibition curve. In the case of `CC[C@H](O)c1cc2c(C3CC3)cc(-c3cnc4nn(C)cc4c3)nc2s1` (single isomer, unassigned) [Compound B13S], the IC50 was determined as 23.6 nM.

With `CCCC(O)c1cc2ccc(-c3cnc4nn(C)cc4c3)cc2s1` (stereo not drawn) [Compound B54, 1-(6-(2-methyl-2H-pyrazolo[3,4-b]pyridin-5-yl)-1-benzothiophen-2-yl)-1-butanol], the half-inhibitory concentration (IC50) worked out at 9.35 nM. As for `CC(C)n1cc2cc(-c3ccc4cc([C@@H](O)C5CC(F)(F)C5)sc4n3)ccc2n1` (single isomer, unassigned) [Compound B56S], the half-maximal inhibitory concentration (IC50) is 18.3 nM. With `CN1CCC(O)(c2cc3ccc(-c4cnc5nn(C)cc5c4)nc3s2)CC1` [Compound C7, 1-methyl-4-(6-(2-methyl-2H-pyrazolo[3,4-b]pyridin-5-yl)thieno[2,3-b]pyridin-2-yl)-4-piperidinol] the figure was 2920 nM; with `Cn1cc2cc(-c3cc(C4CC4)nc4sc(C(O)C5CCC5)cc34)cnc2n1` (stereo not drawn) [Compound B7, cyclobutyl(6-cyclopropyl-4-(2-methyl-2H-pyrazolo[3,4-b]pyridin-5-yl)thieno[2,3-b]pyridin-2-yl)methanol], 14.9 nM.

In the case of `CC(C)[C@H](O)c1cc2ccc(-c3cnc4nn(C)cc4c3)nc2s1` (single isomer, unassigned) [Compound B24S], the IC50 amounted to 15.9 nM. Consider `COCc1cc2c(C3(COC)CCC3)cc(-c3cnc4nn(C)cc4c3)nc2s1` [Compound A4, 5-(2-(methoxymethyl)-4-(1-(methoxymethyl)cyclobutyl)thieno[2,3-b]pyridin-6-yl)-2-methyl-2H-pyrazolo[3,4-b]pyridine], for which the IC50 was over 100000 nM. The same measure for `CN1CC(O)(c2cc3ccc(-c4cnc5nn(C)cc5c4)nc3s2)C1` [Compound C12, 1-methyl-3-(6-(2-methyl-2H-pyrazolo[3,4-b]pyridin-5-yl)thieno[2,3-b]pyridin-2-yl)-3-azetidinol]: 7.27 nM; for `CCC(O)(c1cc2ccc(-c3cnc4nn(C)cc4c3)nc2s1)C(F)(F)F` (stereo not drawn) [Compound C14, 1,1,1-trifluoro-2-(6-(2-methyl-2H-pyrazolo[3,4-b]pyridin-5-yl)thieno[2,3-b]pyridin-2-yl)-2-butanol]: 555 nM. Regarding `Cn1cc2cc(-c3ccc4cc(CO)sc4n3)cnc2n1` [Compound A1, (6-(2-methyl-2H-pyrazolo[3,4-b]pyridin-5-yl)thieno[2,3-b]pyridin-2-yl)methanol], the IC50 stood at 159 nM. On to `CN1CCC(C(O)c2cc3ccc(-c4cnc5nn(C)cc5c4)nc3s2)CC1` (stereo not drawn) [Compound B33, (1-methyl-4-piperidinyl)(6-(2-methyl-2H-pyrazolo[3,4-b]pyridin-5-yl)thieno[2,3-b]pyridin-2-yl)methanol], for which the IC50 came to 27 nM.

As to `COC(c1cc2c(-c3ccnn3C)cc(-c3cnc4nn(C)cc4c3)nc2s1)C1CCC1` (stereo not drawn) [Compound B4], the IC50 turned out to be 39.7 nM.

On to `COCCC(O)c1cc2ccc(-c3cnc4nn(C)cc4c3)cc2s1` (stereo not drawn) [Compound B59, 3-methoxy-1-(6-(2-methyl-2H-pyrazolo[3,4-b]pyridin-5-yl)-1-benzothiophen-2-yl)-1-propanol], for which the IC50 amounted to 8.41 nM. As to `Cn1cnc(-c2ccc3cc([C@@H](O)C4CC(F)(F)C4)sc3n2)cc1=O` (single isomer, unassigned) [Compound B49S], the IC50 came out at 9.3 nM. Consider `Cc1nc2ccc(-c3ccc4cc([C@@H](O)C5CC(F)(F)C5)sc4n3)cc2o1` (single isomer, unassigned) [Compound B51S], for which the IC50 is 6.58 nM. Regarding `Cn1cc2cc(-c3cnc4sc([C@H](O)C5CC(F)(F)C5)cc4n3)cnc2n1` [Compound B96R, (R)-(3,3-difluorocyclobutyl)(2-(2-methyl-2H-pyrazolo[3,4-b]pyridin-5-yl)thieno[2,3-b]pyrazin-6-yl)methanol], the concentration for half-maximal inhibition (IC50) was 0.44 nM.

Turning to `Cc1cn2cc(-c3ccc4cc([C@@H](O)C5CC(F)(F)C5)sc4n3)ccc2n1` (single isomer, unassigned) [Compound B48S], the IC50 stood at 11.8 nM. The same measure for `Cc1cc2[nH]ncc2cc1-c1ccc2cc([C@@H](O)C3CCOCC3)sc2n1` (single isomer, unassigned) [Compound B38S]: 1010 nM; for `Cn1cc2cc(-c3ccc4cc([C@@H](O)C5CCCC5)sc4c3)cnc2n1` (single isomer, unassigned) [Compound B58S]: 111 nM; for `Cn1cc2cc(-c3ccc4cc([C@@H](O)CCC(F)(F)F)sc4c3)cnc2n1` (single isomer, unassigned) [Compound B60S]: 308 nM. The same measure for `Cn1cc2cc(-c3ccc4cc(C(C)(C)O)sc4n3)cnc2n1` [Compound C9, 2-(6-(2-methyl-2H-pyrazolo[3,4-b]pyridin-5-yl)thieno[2,3-b]pyridin-2-yl)-2-propanol]: 419 nM; for `Cn1cc2cc(-c3cc(-c4ccnn4C)c4cc(C(O)(C5CCC5)C(F)(F)F)sc4n3)cnc2n1` (stereo not drawn) [Compound C24, 1-cyclobutyl-2,2,2-trifluoro-1-(6-(2-methyl-2H-pyrazolo[3,4-b]pyridin-5-yl)-4-(1-methyl-1H-pyrazol-5-yl)thieno[2,3-b]pyridin-2-yl)ethanol]: 230 nM; for `CN1CCC(C(O)c2cc3ccc(-c4cnc5nn(C)cc5c4)nc3s2)C1` (stereo not drawn) [Compound B62, (6-(2-methyl-2H-pyrazolo[3,4-b]pyridin-5-yl)thieno[2,3-b]pyridin-2-yl)(1-methyl-3-pyrrolidinyl)methanol]: 20.7 nM. The same measure for `CC(O)c1cc2c(-c3cnc4nn(C)cc4c3)cc(C3CC3)nc2s1` (stereo not drawn) [Compound B12, 1-(6-cyclopropyl-4-(2-methyl-2H-pyrazolo[3,4-b]pyridin-5-yl)thieno[2,3-b]pyridin-2-yl)ethanol]: 57.8 nM; for `Cc1n[nH]c2ccc(-c3ccc4cc([C@H](O)C5CCOCC5)sc4n3)cc12` (single isomer, unassigned) [Compound B40R]: 7.16 nM; for `O[C@H](c1cc2ccc(-c3ccc4[nH]ncc4c3)nc2s1)C1CCOCC1` (single isomer, unassigned) [Compound B37S]: 1880 nM. On to `Cn1cc2cc(-c3cc(-c4ccnn4C)nc4sc(C(O)C5CCC5)cc34)cnc2n1` (stereo not drawn) [Compound B3, cyclobutyl(4-(2-methyl-2H-pyrazolo[3,4-b]pyridin-5-yl)-6-(1-methyl-1H-pyrazol-5-yl)thieno[2,3-b]pyridin-2-yl)methanol], for which the IC50 came out at 64.3 nM. For `CN1CCCC(O)(c2cc3ccc(-c4cnc5nn(C)cc5c4)nc3s2)C1` (stereo not drawn) [Compound C13, 1-methyl-3-(6-(2-methyl-2H-pyrazolo[3,4-b]pyridin-5-yl)thieno[2,3-b]pyridin-2-yl)-3-piperidinol], the IC50 amounted to 761 nM. Take `Cn1ncc2cc(-c3ccc4cc([C@@H](O)C5CCOCC5)sc4n3)ccc21` (single isomer, unassigned) [Compound B34S]: the IC50 is 4700 nM.

With `Nc1c(C(O)C2CC(F)(F)C2)sc2nc(-c3cncnc3)ccc12` (stereo not drawn) [Compound B71, (3-amino-6-(5-pyrimidinyl)thieno[2,3-b]pyridin-2-yl)(3,3-difluorocyclobutyl)methanol], the IC50 amounted to 0.749 nM. For the molecule `CN1CC(C(O)c2cc3ccc(-c4cnc5nn(C)cc5c4)nc3s2)C1` (stereo not drawn) [Compound B42, (1-methyl-3-azetidinyl)(6-(2-methyl-2H-pyrazolo[3,4-b]pyridin-5-yl)thieno[2,3-b]pyridin-2-yl)methanol], the IC50 was found to be 12.8 nM. The same measure for `CN1CCC1C(O)c1cc2ccc(-c3cnc4nn(C)cc4c3)nc2s1` (stereo not drawn) [Compound B45]: 8.64 nM; for `Cn1ncc2cc(-c3ccc4cc([C@@H](O)C5CCOCC5)sc4n3)cnc21` (single isomer, unassigned) [Compound B35S]: 149 nM.

In the case of `Cn1cc2cc(-c3ccc4cc(C5(O)CCOCC5)sc4n3)cnc2n1` [Compound C22, 4-(6-(2-methyl-2H-pyrazolo[3,4-b]pyridin-5-yl)thieno[2,3-b]pyridin-2-yl)tetrahydro-2H-pyran-4-ol], the IC50 came out at 257 nM. Regarding `Cn1cc2cc(-c3ccc4cc(C5(O)CCOC5)sc4n3)cnc2n1` (stereo not drawn) [Compound C20, 3-(6-(2-methyl-2H-pyrazolo[3,4-b]pyridin-5-yl)thieno[2,3-b]pyridin-2-yl)tetrahydro-3-furanol], the half-inhibitory concentration (IC50) was determined as 86 nM. The same measure for `O[C@H](c1cc2ccc(-c3ccc4oncc4c3)nc2s1)C1CCOCC1` (single isomer, unassigned) [Compound B43S]: 626 nM; for `CN(C)c1c(CO)c(-c2cnc3nn(C)cc3c2)nc2sc(CO)cc12` [Compound A2, (4-(dimethylamino)-6-(2-methyl-2H-pyrazolo[3,4-b]pyridin-5-yl)thieno[2,3-b]pyridine-2,5-diyl)dimethanol]: 2160 nM. With `Cn1nc2cc(-c3ccc4cc([C@@H](O)C5CCOCC5)sc4n3)cnc2n1` (single isomer, unassigned) [Compound B39S], the IC50 stood at 184 nM.

In the case of `Cn1cc2cc(-c3ccc4cc([C@@H](O)C5CCC(F)(F)CC5)sc4n3)cnc2n1` (single isomer, unassigned) [Compound B31S], the half-inhibitory concentration (IC50) is 5.64 nM.
